From the SangsterLogP compilation

conditions: not given

logP | Structure (SMILES)
1.88 | CCCNC(=O)COC(=O)c1ccccc1
0.99 | CNC(=O)COC(=O)c1ccccc1
2.36 | CCCCNC(=O)COC(=O)c1ccccc1
1.73 | CC(C)NC(=O)COC(=O)c1ccccc1
1.28 | CCNC(=O)COC(=O)c1ccccc1
0.42 | CC(NC(=O)COC(=O)c1ccccc1)C(N)=O (stereo unspecified)
2.26 | CC(C)(C)NC(=O)COC(=O)c1ccccc1
1.58 | CC(=O)N(C)C(=O)COC(=O)c1ccccc1
1.24 | CC(=O)NC(=O)COC(=O)c1ccccc1
0.69 | NC(=O)COC(=O)c1ccccc1

Further lines, the compound ahead of its results:

Structure (SMILES) | logP
NC(=O)C1CCCN1C(=O)COC(=O)c1ccccc1 (stereo unspecified) | 0.2
CCCCCCN(CCCCCC)C(=O)COC(=O)c1ccccc1 | 6.53
C=CCN(CC=C)C(=O)COC(=O)c1ccccc1 | 2.34
O=C(OCC(=O)N1CCCCC1)c1ccccc1 | 1.95
CC(O)CN(CC(C)O)C(=O)COC(=O)c1ccccc1 (stereo unspecified) | 0.66
CCCCCCNC(=O)COC(=O)c1ccccc1 | 2.81
CCC1CCCCN1C(=O)COC(=O)c1ccccc1 (stereo unspecified) | 2.62
CC(=O)N(C)CCOC(=O)c1ccccc1 | 1.24
CCCCCCN(C)C(=O)COC(=O)c1ccccc1 | 2.99
O=C(COC(=O)c1ccccc1)NC(CO)(CO)CO | 0.25
CCN(CC)C(=O)C(C)OC(=O)c1ccccc1 (stereo unspecified) | 2.3
COCCN(CCOC)C(=O)COC(=O)c1ccccc1 | 1.28
O=C(OCC(=O)N1CCC(O)CC1)c1ccccc1 | 0.63
O=C(OCC(=O)N1CCOCC1)c1ccccc1 | 0.9

same assay, conditions: pH 2.0

logD | Structure (SMILES)
0.79 | O=C(OCC(=O)N1CCC1C(=O)O)c1ccccc1 (stereo unspecified)
0.67 | CN(CC(=O)O)C(=O)COC(=O)c1ccccc1
